ChEMBL document CHEMBL5370577, “Structurally Diverse Cytotoxic Polyphenols from Garcinia gracilis” (J Nat Prod, 2023)

Columns and labels:
MDA-MB-231 [1] = assay: Cytotoxicity against human MDA-MB-231 cells assessed as reduction in cell viability incubated for 48 hrs by MTS assay; assay type: functional, cell-based; conditions: MDA-MB-231, 48 h
SMMC-7721 [2] = assay: Cytotoxicity against human SMMC-7721 cells assessed as reduction in cell viability incubated for 48 hrs by MTS assay; assay type: functional, cell-based; conditions: SMMC-7721, 48 h
SW480 [3] = assay: Growth inhibition in human SW480 cells assessed as reduction in cell viability at 40 uM incubated for 48 hrs by MTS assay relative to control; assay type: functional; conditions: read-out: GI
A549 [4] = assay: Cytotoxicity against human A549 cells assessed as reduction in cell viability incubated for 48 hrs by MTS assay; assay type: functional, cell-based; conditions: A549, 48 h
[5] = Cytotoxicity against human BEAS-2B cells assessed as reduction in cell viability incubated for 48 hrs by MTS assay; assay type: toxicity, cell-based
HL-60 [6] = assay: Cytotoxicity against human HL-60 cells assessed as reduction in cell viability incubated for 48 hrs by MTS assay; assay type: functional, cell-based; conditions: HL-60, 48 h
A549 [7] = assay: Growth inhibition in human A549 cells assessed as reduction in cell viability at 40 uM incubated for 48 hrs by MTS assay relative to control; assay type: functional; conditions: read-out: GI
SW480 [8] = assay: Cytotoxicity against human SW480 cells assessed as reduction in cell viability incubated for 48 hrs by MTS assay; assay type: functional, cell-based; conditions: SW480, 48 h
MDA-MB-231 [9] = assay: Growth inhibition in human MDA-MB-231 cells assessed as reduction in cell viability at 40 uM incubated for 48 hrs by MTS assay relative to control; assay type: functional; conditions: read-out: GI
HL-60 [10] = assay: Growth inhibition in human HL-60 cells assessed as reduction in cell viability at 40 uM incubated for 48 hrs by MTS assay relative to control; assay type: functional; conditions: read-out: GI
SMMC-7721 [11] = assay: Growth inhibition in human SMMC-7721 cells assessed as reduction in cell viability at 40 uM incubated for 48 hrs by MTS assay relative to control; assay type: functional; conditions: read-out: GI
SMMC-7721 [12] = assay: Induction of apoptosis in human SMMC-7721 cells assessed as late apoptotic cells at 10 uM incubated for 24 hrs by Annexin V-PE/7-AAD staining based flow cytometry analysis (Rvb= 0.627%); assay type: functional
SMMC-7721 [13] = assay: Induction of apoptosis in human SMMC-7721 cells assessed as early apoptotic cells at 10 uM incubated for 24 hrs by Annexin V-PE/7-AAD staining based flow cytometry analysis (Rvb= 0.231%); assay type: functional
SMMC-7721 [14] = assay: Induction of apoptosis in human SMMC-7721 cells assessed as necrotic cells at 20 uM incubated for 24 hrs by Annexin V-FITC/PI staining based flow cytometry analysis (Rvb= 0.572%); assay type: functional
SMMC-7721 [15] = assay: Induction of apoptosis in human SMMC-7721 cells assessed as early apoptotic cells at 5 uM incubated for 24 hrs by Annexin V-PE/7-AAD staining based flow cytometry analysis (Rvb= 0.231%); assay type: functional
SMMC-7721 [16] = assay: Induction of apoptosis in human SMMC-7721 cells assessed as necrotic cells at 5 uM incubated for 24 hrs by Annexin V-FITC/PI staining based flow cytometry analysis (Rvb= 0.572%); assay type: functional
SMMC-7721 [17] = assay: Induction of apoptosis in human SMMC-7721 cells assessed as late apoptotic cells at 5 uM incubated for 24 hrs by Annexin V-PE/7-AAD staining based flow cytometry analysis (Rvb= 0.627%); assay type: functional
SMMC-7721 [18] = assay: Induction of apoptosis in human SMMC-7721 cells assessed as viable cells at 20 uM incubated for 24 hrs by Annexin V-PE/7-AAD staining based flow cytometry analysis (Rvb= 98.6%); assay type: functional; conditions: read-out: Activity
SMMC-7721 [19] = assay: Induction of apoptosis in human SMMC-7721 cells assessed as early apoptotic cells at 20 uM incubated for 24 hrs by Annexin V-PE/7-AAD staining based flow cytometry analysis (Rvb= 0.231%); assay type: functional
SMMC-7721 [20] = assay: Induction of apoptosis in human SMMC-7721 cells assessed as necrotic cells at 10 uM incubated for 24 hrs by Annexin V-FITC/PI staining based flow cytometry analysis (Rvb= 0.572%); assay type: functional
SMMC-7721 [21] = assay: Induction of apoptosis in human SMMC-7721 cells assessed as viable cells at 5 uM incubated for 24 hrs by Annexin V-PE/7-AAD staining based flow cytometry analysis (Rvb= 98.6%); assay type: functional; conditions: read-out: Activity
SMMC-7721 [22] = assay: Induction of apoptosis in human SMMC-7721 cells assessed as viable cells at 10 uM incubated for 24 hrs by Annexin V-PE/7-AAD staining based flow cytometry analysis (Rvb= 98.6%); assay type: functional; conditions: read-out: Activity
SMMC-7721 [23] = assay: Induction of apoptosis in human SMMC-7721 cells assessed as late apoptotic cells at 20 uM incubated for 24 hrs by Annexin V-PE/7-AAD staining based flow cytometry analysis (Rvb= 0.627%); assay type: functional

| SMILES | IC50 (MDA-MB-231 [1]) [nM] | IC50 (SMMC-7721 [2]) [nM] | inhibition of growth at 40 µM (SW480 [3]) [%] | IC50 (A549 [4]) [nM] | IC50 at 48 h [5] [nM] | IC50 (HL-60 [6]) [nM] | inhibition of growth at 40 µM (A549 [7]) [%] | IC50 (SW480 [8]) [nM] | inhibition of growth at 40 µM (MDA-MB-231 [9]) [%] | inhibition of growth at 40 µM (HL-60 [10]) [%] | inhibition of growth at 40 µM (SMMC-7721 [11]) [%] | other results |
| --- | --- | --- | --- | --- | --- | --- | --- | --- | --- | --- | --- | --- |
| CC(C)=CCc1c(O)cc(O)c2c1O[C@]13C(=C[C@H]4C[C@H]1C(C)(C)O[C@@]3(CC=C(C)C)C4=O)C2=O | 1300 | 500 | > 50 | 800 | 700 | 1100 | > 50 | 1000 | > 50 | > 50 | > 50 |  |
| CC(C)=CC[C@@]12OC(C)(C)[C@@H]3C[C@H](C=C4C(=O)c5c(O)cc(O)c(CCC(C)(C)O)c5O[C@]431)C2=O | 6200 | 2100 | > 50 | 2900 | 7700 | 4900 | > 50 | 3800 | > 50 | > 50 | > 50 |  |
| CC1(C)C=Cc2c(cc(O)c3c(=O)c4ccc(O)c(O)c4oc23)O1 | 8900 | 2200 | > 50 | 3900 | 21100 |  | > 50 | 4000 | > 50 | > 50 | > 50 |  |
| CC(C)=CC[C@@]12OC(C)(C)[C@@H]3C[C@H](C=C4C(=O)c5c(O)cc(O)cc5O[C@]431)C2=O | 5700 | 1400 | > 50 | 2600 | 3200 | 6300 | > 50 | 3700 | > 50 | > 50 | > 50 | Activity (SMMC-7721 [12]): 29.1%; Activity (SMMC-7721 [13]): 12.7%; Activity (SMMC-7721 [14]): 3.79%; Activity (SMMC-7721 [15]): 3.74%; Activity (SMMC-7721 [16]): 1.8%; Activity (SMMC-7721 [17]): 9.08%; viability at 20 µM (SMMC-7721 [18]): 6.98%; Activity (SMMC-7721 [19]): 20.5%; Activity (SMMC-7721 [20]): 8.22%; viability at 5 µM (SMMC-7721 [21]): 85.4%; viability at 10 µM (SMMC-7721 [22]): 50%; Activity (SMMC-7721 [23]): 68.7% |
| CC(C)=CC[C@@]12OC(C)(C)[C@@H]3C[C@H](C=C4C(=O)c5c(O)cc6c(c5O[C@]431)CCC(C)(C)O6)C2=O | 2300 | 1000 | > 50 | 2900 | 1100 | 1700 | > 50 | 1000 | > 50 | > 50 | > 50 |  |
| CC(C)(O)CCc1c(O)cc(O)c2c(=O)c3ccc(O)c(O)c3oc12 | 27300 | 2200 | > 50 | 7200 | 20400 | 3900 | > 50 | 6100 | > 50 | > 50 | > 50 |  |
| COc1cccc2c1C(=O)c1c(O)c3c(c(O)c1C2=O)C[C@@](O)(C(=O)CO)C[C@@H]3O[C@H]1C[C@H](N)[C@H](O)[C@H](C)O1 [DOXORUBICIN] |  |  |  |  |  |  |  |  |  |  |  | Activity (SMMC-7721 [15]): 0.796%; Activity (SMMC-7721 [16]): 1.85%; Activity (SMMC-7721 [17]): 96%; viability at 5 µM (SMMC-7721 [21]): 1.34% |
